Data taken from patent US6326372A, “Lactam and cyclic urea derivatives useful as alpha 1a adrenoceptor antagonists” (Merck & Co., Inc., priority 2000, dated 2001).
Where a name gives a salt, the structure may show the parent alone.

System: alpha 1a receptors versus alpha 1b and alpha 1d receptors
Assay: Selective Binding Assays: binding to alpha 1a versus alpha 1b and alpha 1d receptors ([125I]-HEAT competition binding)
Design: species or system human
Settings: alpha 1a versus both alpha 1b and alpha 1d; at least about
Description: Membranes prepared from the stably transfected human alpha 1a cell line (ATCC CRL 11140) were used to identify compounds that bind to the human alpha 1a adrenergic receptor. These competition binding reactions (total volume=200 μl) contained 50 mM Tris-HCl pH. 7.4, 5 mM EDTA, 150 mM NaCl, 100 pM [^125 I]-HEAT, membranes prepared from the alpha 1a cell line and increasing amounts of unlabeled ligand. Reactions were incubated at room temperature for one hour with shaking. Reactions were filtered onto Whatman GF/C glass fiber filters with a Inotec 96 well cell harvester. Filters were washed three times with ice cold buffer and bound radioactivity was determined (Ki).
Membranes prepared from stably transfected human alpha 1d and alpha 1b cell lines (ATCC CRL 11138 and CRL 11139, respectively) were used to identify compounds that selectively bind to the human alpha 1a adrenergic receptor. These competition binding reactions (total volume=200 μl) contained 50 mM Tris-HCl pH. 7.4, 5 mM EDTA, 150 mM NaCl, 100 pM [^125 I]-HEAT, membranes prepared from cell lines transfected with the respective alpha 1 subtype expression plasmid and increasing amounts of unlabeled ligand. Reactions were incubated at room temperature for one hour with shaking. Reactions were filtered onto Whatman GF/C glass fiber filters with a Inotec 96 well cell harvester. Filters were washed three times with ice cold buffer and bound radioactivity was determined (Ki).

fold more selective in binding to alpha 1a receptors versus binding to the alpha 1b and alpha 1d receptors: at least 10 fold
SMILES: CC1(C)CN(Cc2ccccc2)C(=O)N(C(=O)NCCCN2CCC(c3ccc(F)cc3)CC2)C1c1ccc(F)c(F)c1 [Example 19, (4R)- and (4S)-4-(3,4-Difluorophenyl)-5,5-dimethyl-1-benzyl-3-[(4'-(4-fluorophenyl)piperidin-1'-yl)propyl]aminocarbonyltetrahydropyrimidin-2-one Hydrochloride]
